Drawing on ChEMBL document CHEMBL4627251, “Identification of potent pyrazole based APELIN receptor (APJ) agonists” (Bioorg Med Chem, 2020), this text covers EC50 for twelve molecules.

Assay [1] concerns the target T1, Type-1 angiotensin II receptor (Homo sapiens, UniProt P30556).
T1 sequence (P30556 whole entry): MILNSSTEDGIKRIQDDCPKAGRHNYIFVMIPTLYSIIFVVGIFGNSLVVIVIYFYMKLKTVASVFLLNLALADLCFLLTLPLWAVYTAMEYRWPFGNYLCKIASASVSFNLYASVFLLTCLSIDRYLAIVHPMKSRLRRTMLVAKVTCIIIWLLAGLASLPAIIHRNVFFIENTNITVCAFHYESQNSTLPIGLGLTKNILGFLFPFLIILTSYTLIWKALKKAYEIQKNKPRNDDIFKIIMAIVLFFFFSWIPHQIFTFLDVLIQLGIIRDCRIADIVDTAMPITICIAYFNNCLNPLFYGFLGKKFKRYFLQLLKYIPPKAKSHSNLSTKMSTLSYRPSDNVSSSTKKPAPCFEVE
Kind of assay: Agonist activity at human AGTR1 stably expressed in CHO cells assessed as increase in intracellular calcium mobilization measured at 1 sec intervals for 90 sec by calcium 5 dye based FLIPR assay. In kind it is functional, cell-based. Background: A change in cytosolic calcium serves as a functional read-out for many receptors and channels.

For assay [2], the target named is T2, Apelin receptor (Homo sapiens, UniProt P35414).
T2 sequence (P35414 whole entry): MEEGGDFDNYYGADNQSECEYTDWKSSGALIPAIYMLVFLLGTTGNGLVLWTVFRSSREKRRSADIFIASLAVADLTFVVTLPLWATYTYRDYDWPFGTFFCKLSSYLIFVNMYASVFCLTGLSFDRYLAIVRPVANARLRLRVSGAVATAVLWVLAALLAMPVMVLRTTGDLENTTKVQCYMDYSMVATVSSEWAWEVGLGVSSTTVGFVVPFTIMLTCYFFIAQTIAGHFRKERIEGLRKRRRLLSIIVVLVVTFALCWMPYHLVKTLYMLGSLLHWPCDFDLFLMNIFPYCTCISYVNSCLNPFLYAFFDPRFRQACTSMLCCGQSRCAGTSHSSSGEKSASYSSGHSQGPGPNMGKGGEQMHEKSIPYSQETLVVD
Description: Agonist activity at human APJ receptor stably expressed in CHO cells assessed as inhibition of forskolin-induced cAMP accumulation measured after 30 mins by Eu-cAMP tracer based TR-FRET assay

For assay [3], the target named is T2, Apelin receptor. This is another data set of the same source.
Description: Agonist activity at human APJ receptor stably expressed in CHO cells co-expressing Galphaq16 assessed as increase in intracellular calcium mobilization measured at 1 sec intervals for 90 secs by calcium 5 dye based FLIPR assay
Assay [4] deals with T2, Apelin receptor. This is another data set of the same source.
Description: Agonist activity at human APJ receptor stably expressed in CHOK1 cells assessed as induction of beta-arrestin 2 recruitment incubated for 90 mins by PathHunter assay

Where only a bound is given, the exact number is not on record here.

For the molecule `CC[C@@H](O)CNC(=O)C[C@H](CCC1CCCCC1)NC(=O)c1cc(-c2c(OC)cccc2OC)n(CC(C)C)n1`, in assay [1], the EC50 – broadly, the midpoint of the concentration-response curve – is over 10 µM.

Consider `COc1cccc(OC)c1-c1cc(C(=O)N[C@@H](CCC2CCCCC2)CC(=O)O)nn1-c1ccc(F)cc1`, for which the half-maximal effective concentration (EC50) in assay [1] is over 10 µM.

`COc1cccc(OC)c1-c1cc(C(=O)N[C@@H](CCC2CCCCC2)CC(=O)NC2CCC2)nn1C1CCCCC1`: the EC50 in assay [1] is over 10 µM.

For `COc1cccc(OC)c1-c1cc(C(=O)N[C@@H](CCC2CCCCC2)CC(=O)NC2CCC2)nn1CC(C)C`, the half-maximal effective concentration (EC50) in assay [1] is over 10 µM.

`COc1cccc(OC)c1-c1cc(C(=O)N[C@@H](CCc2ccccc2)CC(=O)O)nn1CC(C)C`: the EC50 at Apelin receptor [2], on Apelin receptor [3] and at Apelin receptor [4] was over 10 µM in each case.

Take `CCC(=O)CNC(=O)C[C@H](CCC1CCCCC1)NC(=O)c1cc(-c2c(OC)cccc2OC)n(CC(C)C)n1`: the EC50 in assay [1] is over 10 µM.

As to `CCC(O)CNC(=O)C[C@H](CCC1CCCCC1)NC(=O)c1cc(-c2c(OC)cccc2OC)n(CC(C)C)n1` (some centres undefined), the EC50 in assay [1] is over 10 µM.

With `COC(=O)CN(C)C(=O)[C@H](CCc1ccccc1)NC(=O)c1cc(-c2c(OC)cccc2OC)n(CC(C)C)n1`, the EC50 in assay [1] was over 10 µM.

As for `CCC(=O)CNC(=O)[C@H](CCc1ccccc1)NC(=O)c1cc(-c2c(OC)cccc2OC)n(CC(C)C)n1`, the EC50 in assay [1] was over 10 µM.

On to `COc1cccc(OC)c1-c1cc(C(=O)N[C@@H](CCC2CCCCC2)CC(=O)NC2CCC2)nn1C1CCCC1`, for which, in assay [1], the EC50 is over 10 µM.

`CCCn1nc(C(=O)N[C@@H](CCC2CCCCC2)CC(=O)NC2CCC2)cc1-c1c(OC)cccc1OC`: the EC50 in assay [1] is over 10 µM.

As to `COc1cccc(OC)c1-c1cc(C(=O)N[C@@H](CCc2ccccc2)CC(=O)NC2CCC2)nn1CC(C)C`, the EC50 in assay [1] was over 10 µM.
